Consider three compounds from publication PMC7845594, “Novel Immune Modulators Enhance Caenorhabditis elegans Resistance to Multiple Pathogens” (mSphere, 2021).

The subject of experiment [1] is reactive oxygen species (ROS). As to the kind of experiment: DHE staining (ROS level). The format is in vivo, Caenorhabditis elegans. The note with it: 50 or 100 µM, 10 h, no pathogen. From the text: Previous work from our lab has established that the ESRE network plays an important role in the resistance of C. elegans to pyoverdine, the main virulence determinant in liquid killing, and recent evidence has shown that ESRE activation depends on increased reactive oxygen species (ROS) ([23], [38], [39]). To evaluate ESRE activation, worms carrying an hsp-16.1p::GFP reporter (which contains two ESRE motifs and was previously used as an indicator of ESRE activation [[39][–][41]]), were exposed to 50 or 100 μM LK35, LK38, LK56, juglone (positive control), or DMSO. […] ROS level was assessed based on the fluorescence of dihydroethidium (DHE; a ROS-specific dye) using a COPAS FlowSort for flow vermimetry.
Young adult wild-type (A), hsp-4p::GFP (B), hsp-16.1p::GFP (C), or rpt-3::GFP (D) worms were incubated with LK molecules at 50 or 100 µM, DMSO control, or positive controls. For panel A, the worms were treated with compound for 10 h, and then the worms were stained with 4 µM DHE for 1 h before washing and fluorescence measurement. For panels B to D, the worms were treated with compound for 15 h prior to fluorescence measurement. Mean values from at least three biological replicates are shown. *, P < 0.05; **, P < 0.01; ***, P < 0.001 (compared to the solvent control). P values were calculated using Student’s t test. Error bars represent the standard error of the mean. […]

The test system of experiment [2] is C. elegans host defense pathway genes. Put plainly: nanoString expression of 115 immune- and stress-responsive genes. The following applies: 100 μM LK molecules, 16 h. Here is the method: The ratio of MIC to EC was determined for each of the 69 compounds.
Analysis of the expression of 115 immune- and stress-responsive genes using nanoString technology. Download Table S1, XLSX file, 0.02 MB.
For nanoString-based (nanoString Technologies, Seattle, WA) experiments, 2,000 wild-type, young adult worms were exposed to 100 μM LK molecules or DMSO control in S Basal medium in 6-well plates for 16 h. RNA purification and gene expression analysis were performed according to nanoString guidelines. Two biological replicates were tested for each condition.

Experiment [3] concerns C. elegans exposed to P. aeruginosa strain PA14. Put plainly: P. aeruginosa slow-killing assay (agar). The following applies: wild-type worms, 50 µM, Fig 8 (DMSO 58.9). The format is in vivo, Caenorhabditis elegans. From the text:
The finding that each of the compounds activated PMK-1/p38 MAPK targets was of interest, as this pathway is associated with enhanced immunity against multiple bacterial pathogens in agar-based C. elegans assays. Therefore, we tested whether these compounds could promote survival in an agar-based, high-colonization pathogenesis model known as slow killing. Loss of PMK-1 activity substantially compromises survival in the slow-killing assay ([16], [47]). Wild-type, young adult worms were exposed to P. aeruginosa strain PA14 on agar plates impregnated with each of the five compounds. […] To see whether this depended upon the PMK-1 pathway, LK32, LK38, and LK56 were retested in worms where RNAi was used to knock down pmk-1/MAPK or atf-7/ATF7 (a key transcription factor whose activity is modulated by PMK-1 [63, 64]) (Fig. 9; see Table S2 in the supplemental material for TD50 and overall statistical significance).
FIG 8 Four LK molecules extend C. elegans life span in the slow-killing assay. […] The data shown are from a representative replicate. Each of the three biological replicates was comprised of three plates per condition, with each plate containing ∼60 worms. Statistical significance was calculated using a log-rank test. Worms that left the surface of the plate were excluded from analysis (see Table S2 in the supplemental material for TD50 and exact P values).
FIG 9 Rescue in slow killing by a subset of LK compounds depends upon the PMK-1/p38 MAPK pathway. Wild-type L4 worms were reared on RNAi targeting pmk-1/p38 MAPK, atf-7/ATF-7, or empty vector and placed onto slow-killing plates containing DMSO or LK32 (A and B), LK38 (C and D), or LK56 (E and F) at 50 µM. Starting at 24 h, worms were scored every 12 h for survival until all worms perished. Each of the three biological replicates was comprised of three plates, each plate contained approximately 50 to 70 worms. Statistical significance was calculated using log-rank test (see Table S2 in the supplemental material for TD50 and exact P values). For vector RNAi, DMSO versus compound, P < 0.001 for LK38, LK56, and LK32.
Supplementary file : FIG S5 NSY-1 and SEK-1, upstream members of the PMK-1/p38 MAPK pathway, are required for LK38-mediated rescue. Young adult wild-type, nsy-1/MAP3K15(ag3), or sek-1/MAP2K6(km-4) mutants were exposed to P. aeruginosa in the slow-killing assay in the presence of DMSO or LK38. Data for each condition at each time point represent the average value for three plates from one representative replicate (of three replicates total). Each plate contained ∼60 worms. P values were calculated using a log-rank test (see Table S2 in the supplemental material for the TD50 and exact P values). For wild-type DMSO versus LK38 P < 0.001. No statistically significant difference was measured between LK38 and DMSO for either mutant. Download FIG S5, PDF file, 0.1 MB.
Slow-killing (SK) plates were made as previously reported ([92]). Compounds were added to molten SK agar before pouring plates. After solidifying, 40 µl of PA14 overnight culture was spread on plates before incubating plates at 37°C for 24 h, followed by 25°C for 24 h. 5-fluoro-2′-deoxyuridine (FUDR) (0.1 mg/ml) was dropped on plates 30 min prior to picking worms, to ensure nematode sterility. Fifty to seventy L4-stage, wild-type worms were picked onto plates and scored every 12 h after the first 24 h, until all worms were dead. Three biological replicates were performed.

Consider `C=C(C)[C@H]1Cc2c(ccc3c2O[C@@H]2COc4cc(OC)c(OC)cc4[C@@H]2C3=O)O1` [rotenone], for which the “ROS level (DHE staining)” value in experiment [1] is on record as “significant increase in staining”.
Take `Cc1cc(C2CCCCC2)n(O)c(=O)c1` [Ciclopirox, reference compound]: in experiment [2], the “B0024.4 expression, induction” value is 1.09 fold; the “C02B4.2 nhr-17 expression, induction” value is 5.80 fold; the “C06B3.7 expression, induction” value was 3.19 fold; the “C07G3.2 irg-1 expression, induction” value was found to be 1.06 fold. Besides, in experiment [2], the “C12C8.1 hsp-70 expression, induction” value is on record as 3.28 fold; the “C15F1.7 sod-1 expression, induction” value is 2.15 fold; the “C29F7.2 expression, induction” value is on record as 10.38 fold; the “C31A11.5 oac-6 expression, induction” value was 5.76 fold. In experiment [2], the “C32D5.12 expression, induction” value is given as 1.22 fold; the “C32H11.1 expression, induction” value is reported as 20.23 fold; the “C32H11.3 expression, induction” value is listed as 2.02 fold; the “C34G6.4 pgp-2 expression, induction” value came out at 3.63 fold. Besides, in experiment [2], the “C37C3.10 expression, induction” value is reported as 12.27 fold; the “C37H5.8 hsp-6 expression, induction” value was found to be 4.01 fold; the “C49G7.5 irg-2 expression, induction” value is on record as 3.65 fold; the “F08F8.5 numr-1 expression, induction” value was 8.74 fold. In addition, in experiment [2], the “F08H9.4 expression, induction” value is 4.96 fold; the “F14F9.3 expression, induction” value came out at 1.98 fold; the “F22B5.4 expression, induction” value is given as 2.49 fold; the “F22H10.2 expression, induction” value stood at 2.82 fold. In experiment [2], the “F26A3.4 expression, induction” value is 2.35 fold; the “F35E8.11 cdr-1 expression, induction” value worked out at 56.32 fold; the “F35G2.4 phy-2 expression, induction” value is on record as 1.70 fold; the “F37B12.2 gcs-1 expression, induction” value came out at 1.30 fold. Moreover, in experiment [2], the “F43E2.8 hsp-4 expression, induction” value is 10.74 fold; the “F44E5.5 expression, induction” value is recorded as 2.67 fold; the “F49F1.6 expression, induction” value stood at 2.55 fold; the “F49F1.7 expression, induction” value turned out to be 15.81 fold. For the same compound, in experiment [2], the “F49H6.13 expression, induction” value is recorded as 2.90 fold; the “F54B8.4 expression, induction” value amounted to 6.33 fold; the “F55G11.2 expression, induction” value came to 1.86 fold; the “F59A7.1 clec-206 expression, induction” value worked out at 11.44 fold. Further, in experiment [2], the “F59B10.4 expression, induction” value is reported as 1.20 fold; the “H12D21.1 nspa-1 expression, induction” value is 3.83 fold; the “H23N18.1 ugt-13 expression, induction” value is 5.56 fold; the “H23N18.3 ugt-8 expression, induction” value turned out to be 108.33 fold. Further, in experiment [2], the “K05B2.4 expression, induction” value came to 8.10 fold; the “K08F4.7 gst-4 expression, induction” value was 2.79 fold; the “K09A9.1 nipi-3 expression, induction” value is on record as 2.12 fold; the “K10D11.2 expression, induction” value amounted to 2.25 fold. Besides, in experiment [2], the “K10G4.3 expression, induction” value stood at 2.60 fold; the “R03D7.6 gst-5 expression, induction” value was determined as 11.91 fold; the “R08H2.1 dhs-23 expression, induction” value came to 120.99 fold; the “R10E8.3 expression, induction” value was found to be 3.34 fold. Besides, in experiment [2], the “T19D12.3 expression, induction” value is on record as 2.80 fold; the “T19H12.1 ugt-9 expression, induction” value is 6.34 fold; the “T21E8.1 pgp-6 expression, induction” value was 0.94 fold; the “T22B7.3 expression, induction” value came to 2.18 fold. In addition, in experiment [2], the “T24C4.4 expression, induction” value is 1.62 fold; the “T24E12.5 expression, induction” value is recorded as 3.07 fold; the “T27E4.3 hsp-16.48 expression, induction” value amounted to 2.96 fold; the “T27E4.8 hsp-16.1 expression, induction” value was 2.80 fold. In experiment [2], the “T27F6.8 expression, induction” value amounted to 4.80 fold; the “T28C12.4 expression, induction” value came to 13.23 fold; the “W02D9.10 expression, induction” value worked out at 2.74 fold; the “Y22D7AL.5 hsp-60 expression, induction” value was determined as 2.19 fold. Further, in experiment [2], the “Y38E10A.15 nspe-7 expression, induction” value turned out to be 1.84 fold; the “Y46H3A.2 hsp-16.41 expression, induction” value stood at 2.63 fold; the “Y46H3A.3 hsp-16.2 expression, induction” value is reported as 2.71 fold; the “Y56A3A.33 expression, induction” value was found to be 3.70 fold. In experiment [2], the “Y58A7A.5 expression, induction” value amounted to 1.48 fold; the “ZC376.7 atfs-1 expression, induction” value is 3.27 fold; the “ZC443.6 ugt-16 expression, induction” value was 52.72 fold; the “ZK697.6 gst-21 expression, induction” value turned out to be 454.34 fold.
With `Cc1ccc(Nc2nc(N)c3ccccc3n2)cc1Cl` [RPW-24, reference compound], in experiment [3], the “TD50, slow killing” value is on record as 63.7 h.
